The values that follow come from PMC8763382, “2-Sulfonylpyrimidines as Privileged Warheads for the Development of S. aureus Sortase A Inhibitors” (Frontiers in Molecular Biosciences, 2022).

As a reminder, the melting point is the temperature of the solid-liquid transition. The term Ki denotes a measure of affinity in units of concentration, obtained from inhibition or displacement. Lower therefore signals higher affinity.

“And” between values parts separate entries of the source, which are not always exact repeats. Equal entries are not always repeated.

In one data set the target is T1, S. aureus SrtA (Staphylococcus aureus, UniProt Q2FV99).
T1 construct: His tag (inferred from IMAC on a HisTrap column); made in house; host or cells: E. coli BL21 Gold (DE3)
T1 sequence (Q2FV99 60-206): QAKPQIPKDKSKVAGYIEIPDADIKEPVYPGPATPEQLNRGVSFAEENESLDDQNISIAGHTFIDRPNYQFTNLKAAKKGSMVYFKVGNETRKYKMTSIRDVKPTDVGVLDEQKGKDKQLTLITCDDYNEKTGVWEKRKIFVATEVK
Put plainly: fluorometric enzyme assay of SrtA transpeptidation (Abz-LPETG-Dap(Dnp)-OH substrate). In kind it is biochemical. Particulars: for k inact: maximum inactivation rate; for k inact / KI (inactivation) / k 2nd: Tris pH 7.50, n. i. = <20% inhibition at 100 µM; for KI (inactivation): read-out: KI, dissociation constant of the reversible enzyme-inhibitor complex; for k 2nd: second-order rate of inhibition; for SrtA inhibition (in words): fluorometric enzyme assay, inhibitor concentration 100 µM. Here is the method: To evaluate the inhibition potency of the parent sulfonylpyrimidine 4, this compound was tested by means of a fluorometric enzyme assay with recombinantly expressed S. aureus SrtA ([Schmohl et al., 2017b]) and Abz-LPETG-Dap (Dnp)-OH as substrate. […] To verify the irreversible mode of inhibition, we determined the maximum inactivation rate k inact, the dissociation constant of the reversible enzyme-inhibitor complex KI, and the second-order rate of inhibition k 2nd. For compound 4, a k inact = 0.00065 s^−1 was found, which is very low compared to other covalent SrtA inhibitors ([Chan et al., 2017]; [Barthels et al., 2020]; [Jaudzems et al., 2020]).
Inhibition assays of S. aureus SrtA transpeptidation reactions were performed as described previously ([Barthels et al., 2020]). Briefly, the recombinantly expressed SrtA (final concentration: 1 µM) was incubated in assay buffer (50 mM Tris, 150 mM NaCl, 5 mM CaCl2, pH 7.50) with 25 µM of the FRET-pair substrate Abz-LPETG-Dap (Dnp)-OH (Genscript, Piscataway, New Jersey) and 0.5 mM tetraglycine (Sigma Aldrich, St. Louis, Missouri). Inhibitors were added from DMSO stocks. Reactions were initiated by addition of SrtA and monitored for 30 min at 30°C in an Infinite M200 Pro plate reader with λex 320 nm/λem 430 nm (Tecan, Männedorf, Switzerland). Three technical replicates were carried out for each inhibitor in black flat-bottom 96-well plates (Greiner bio-one, Kremsmünster, Austria). The enzyme kinetics of irreversible SrtA inactivation were analyzed as described previously ([Barthels et al., 2020]).

The nature of data set [1]: cysteine reactivity assay (competitive fluorescence assay with probe 8). In kind it is physicochemical. As to conditions: phosphate buffer (1×PBS) pH 7.5. The text has this: In order to study the kinetics of sulfonylpyrimidines reacting with free cysteine in solution, a strategy for a competitive fluorescence-based assay was adapted from previous works ([Epps and Taylor, 2001]; [Sameshima et al., 2017]). […] The reaction of probe 8 with cysteine liberates 4-methylumbelliferone as a fluorometrically detectable product (Figure 7A), and thus, the fluorescence increase can be described by the second-order rate constant k probe (Equation 1).
Upon the addition of competitive and irreversible cysteine modifiers such as sulfonylpyrimidines, the fluorescence increase of the probe reaction was hyperbolically attenuated (Figure 7B). According to the conceptual deduction described previously ([Epps and Taylor, 2001]; [Sameshima et al., 2017]), the experimental fluorescence curves can be analyzed by nonlinear regression as first-order reaction progress curves (Equation 2). The parameter k obs describes the curvature corresponding to the sum of the competing kinetics (Equation 3). Under the assumptions that 1) the competitive reaction between sulfonylpyrimidines vs. probe with cysteine is started by simultaneous addition, and 2) sulfonylpyrimidines are added at a much higher concentration than cysteine (5 µM) and the probe (5 µM), the k obs values depend substantially on the k chem value. The compound-specific second-order inactivation parameter k chem can be determined by linear regression from the k obs values of the dilution series (Equation 4). d[FL]/dt=kprobe[Cys][probe] (1) FL=[Cys]total⋅kprobe [probe]/kprobe [probe] + kchem [sulfonylpyrimidine](1−e^−kobs⋅t) (2) kobs=kchem [sulfonylpyrimidine]+kprobe [probe] (3) kchem=kobs/[sulfonylpyrimidine] (4)
Kinetic characterization of the reaction between sulfonylpyrimidines and cysteine was performed in degassed phosphate buffer (1×PBS, pH 7.5) or individual cases in bicarbonate buffer (20 mM NaHCO3, 100 mM NaCl, pH 7.5). Three technical replicates were carried out for each sulfonylpyrimidine in black flat-bottom 96-well plates. For this purpose, 50 µL buffered solution (including 5% (v/v) DMSO) of the respective sulfonylpyrimidine derivative (final: 250–3 µM) and the cysteine reactive probe 8 (final: 5 µM) were premixed. Reactions were initiated by the addition of 50 µL cysteine (final: 5 µM), dissolved in the respective buffer, and monitored for 30 min at 30°C in an Infinite M200 Pro plate reader with λex 380 nm/λem 460 nm. To calculate k obs and k chem values, fluorescence curves were fitted using the same non-linear regression as for in vitro inhibition of SrtA ([Barthels et al., 2020]).

`CS(=O)(=O)c1ncc(Cl)c(C(=O)NCC(=O)Nc2cccc(Oc3ccccc3)c2)n1` [Compound 5b] yielded a melting point of 91 °C. Further, on S. aureus SrtA, the k inact amounted to 0.00082 ± 0.00004 s⁻¹; the KI (inactivation) amounted to 42.4 ± 4.62 µM; the “k 2nd” value is 1,175 M^−1min^−1 and 1,175 ± 67 M^−1min^−1.

As to `CS(=O)(=O)c1ncc(Cl)c(C(=O)Nc2ccc(-c3ccc(C#N)cc3)cc2)n1` [Compound 5d], the melting point is 267 °C. For the same molecule, at S. aureus SrtA, the k inact result is “n. i” and the “k 2nd” value was “n. i”.

Turning to `CS(=O)(=O)c1ncc(Cl)c(C(=O)Nc2ccc3[nH]ncc3c2)n1` [Compound 5f], the melting point was found to be 231 °C. Moreover, at S. aureus SrtA, the k inact result was “n. i” and the “k 2nd” value is listed as “n. i”.

Molecule `Cc1ccc(-c2csc(NC(=O)c3nc(S(C)(=O)=O)ncc3Cl)n2)cc1` [Compound 5g] had a melting point of 280 °C. Besides, on S. aureus SrtA, the k inact entry was “n. i” and the “k 2nd” value was “n. i”.

In turn, `CS(=O)(=O)c1ncc(Cl)c(C(=O)N2CCc3ccccc3C2)n1` [Compound 5h] showed a melting point of 218 °C. For the same molecule, at S. aureus SrtA, the k inact entry is “n. i” and the “k 2nd” value is “n. i”.

As to `CCC(CC)NC(=O)c1nc(S(C)(=O)=O)ncc1Cl` [Compound 5i], the melting point amounted to 146 °C. Also, on S. aureus SrtA, the k inact entry is “n. i” and the “k 2nd” value is given as “n. i”.

`CS(=O)(=O)c1ncc(Cl)c(C(=O)N(Cc2ccccc2)Cc2ccccc2)n1` [Compound 5k]: the melting point was found to be 68 °C. At S. aureus SrtA, the k inact entry is “n. i” and the “k 2nd” value was “n. i”.

As to `CS(=O)(=O)c1ncc(Cl)c(C(=O)Nc2cccc(Sc3ccccc3)c2)n1` [Compound 6b], the melting point came to 135 °C. Moreover, on S. aureus SrtA, the k inact is 0.00578 ± 0.00033 s⁻¹, the KI (inactivation) is 47.5 ± 4.62 µM and the “k 2nd” value is on record as 7,305 ± 294 M^−1min^−1.

Molecule `CS(=O)(=O)c1ncc(Cl)c(C(=O)Nc2cccc(OC3CCCCC3)c2)n1` [Compound 6c] displayed a melting point of 144 °C. In addition, at S. aureus SrtA, the k inact was found to be 0.00864 ± 0.00092 s⁻¹; the KI (inactivation) amounted to 78.8 ± 9.92 µM; the “k 2nd” value is 6,593 M^−1min^−1 and 6,593 ± 243 M^−1min^−1.

Molecule `CS(=O)(=O)c1ncc(Cl)c(C(=O)Nc2cccc(Cc3ccccc3)c2)n1` [Compound 6d] displayed a melting point of 148 °C. Also, on S. aureus SrtA, the k inact was 0.00618 ± 0.00025 s⁻¹, the KI (inactivation) was determined as 60.3 ± 6.4 µM and the “k 2nd” value is listed as 6,181 ± 489 M^−1min^−1.

On to `COc1cccc(NC(=O)c2nc(S(C)(=O)=O)ncc2Cl)c1` [Compound 6e], for which, on S. aureus SrtA, the inhibition constant Ki was above 100 µM; the “k 2nd” value was 882 M⁻¹ min⁻¹ and 882 ± 43 M⁻¹ min⁻¹.

On to `CS(=O)(=O)c1ncc(Cl)c(C(=O)Nc2cccc(-c3ccccc3)c2)n1` [Compound 6f], for which the melting point worked out at 164 °C. Moreover, on S. aureus SrtA, the inhibition constant Ki is above 100 µM; the “k 2nd” value was 588 M⁻¹ min⁻¹ and 588 ± 48 M⁻¹ min⁻¹.

`CS(=O)(=O)c1ncc(Cl)c(C(=O)Nc2ccc(Oc3ccccc3)cc2)n1` [Compound 6h] came in with a melting point of 195 °C. Besides, at S. aureus SrtA, the “SrtA inhibition (in words)” value is given as “complete abolition of inhibition”, the k inact entry is “n. i” and the “k 2nd” value is listed as “n. i”.

The molecule `CS(=O)(=O)c1ncc(Cl)c(C(=O)Nc2cccc(OCc3ccccc3)c2)n1` [Compound 6k] gave a melting point of 154 °C. Further, on S. aureus SrtA, the “SrtA inhibition (in words)” value is reported as “inhibition was completely abolished”, the k inact entry is “n. i” and the “k 2nd” value was “n. i”.

`CS(=O)(=O)c1ncc(Cl)c(C(=O)Nc2ccc3c(c2)oc2ccccc23)n1` [Compound 6l]: the melting point turned out to be 250 °C. Besides, at S. aureus SrtA, the “SrtA inhibition (in words)” value is reported as “complete loss of inhibition”, the k inact result is on record as “n. i” and the “k 2nd” value was “n. i”.

`CS(=O)(=O)c1ncc(Cl)c(C(=O)Nc2cccc(C(=O)Nc3ccccc3)c2)n1` [Compound 6m] displayed a melting point of 237 °C. In addition, on S. aureus SrtA, the “SrtA inhibition (in words)” value is “inhibition was completely abolished”, the k inact entry was “n. i” and the “k 2nd” value is “n. i”.

For the molecule `CS(=O)(=O)c1ncc(Cl)c(C(=O)NCCSc2ccccc2)n1` [Compound 6n], at S. aureus SrtA, the “SrtA inhibition (in words)” value is “complete loss of inhibition”, the k inact result was “n. i” and the “k 2nd” value is listed as “n. i”.

Consider `Cc1cnc(S(C)(=O)=O)nc1C(=O)Nc1cccc(Oc2ccccc2)c1` [Compound 7d], for which the melting point is 164 °C. On S. aureus SrtA (SrtA k 2nd over cysteine k chem), the “S. I. (k 2nd/k chem)” value amounted to 196. Besides, the “k 2nd” value at S. aureus SrtA is 1,204 ± 139 M^−1min^−1. The Cysteine k chem in data set [1] came out at 0.102 ± 0.0285 M⁻¹ s⁻¹.
